ChEMBL document CHEMBL1697723, “A predictive ligand-based Bayesian model for human drug-induced liver injury” (Drug Metab Dispos, 2010)

Tested on: Hepatotoxicity
Assay: Human drug-induced liver injury (DILI) modelling dataset from Ekins et al

Compound | Hepatotoxicity (Liver) | Hepatotoxicity
OCC(S)CS (stereo not given) [DIMERCAPROL] | DILI positive (test set) | –
O=C1CCC(=O)N1c1cc(Cl)cc(Cl)c1 [DIMETHACHLON] | – | DILI positive (test set)
CCOC(=O)C1(c2ccccc2)CCN(CCC(C#N)(c2ccccc2)c2ccccc2)CC1.Cl [DIPHENOXYLATE HYDROCHLORIDE] | – | DILI negative (test set)
c1cc[n+]2c(c1)-c1cccc[n+]1CC2 [DIQUAT] | DILI positive (test set) | –
CC(C)N(CCC(C(N)=O)(c1ccccc1)c1ccccn1)C(C)C.O=P(O)(O)O (stereo not given) [DISOPYRAMIDE PHOSPHATE] | – | DILI positive (training set)
CC(CCc1ccc(O)cc1)NCCc1ccc(O)c(O)c1.Cl (stereo not given) [DOBUTAMINE HYDROCHLORIDE] | – | DILI negative (training set)
COc1cc2c(cc1OC)C(=O)C(CC1CCN(Cc3ccccc3)CC1)C2 (stereo not given) [DONEPEZIL] | – | DILI negative (training set)
NCCc1ccc(O)c(O)c1 [DOPAMINE] | DILI negative (training set) | –
COc1cccc2c1C(=O)c1c(O)c3c(c(O)c1C2=O)C[C@@](O)(C(=O)CO)C[C@@H]3O[C@H]1C[C@H](N)[C@H](O)[C@H](C)O1.Cl [DOXORUBICIN HYDROCHLORIDE] | – | DILI positive (test set)
COc1cccc2c1C(=O)c1c(O)c3c(c(O)c1C2=O)C[C@@](O)(C(=O)CO)C[C@@H]3O[C@H]1C[C@H](N)[C@H](O)[C@H](C)O1 [DOXORUBICIN] | – | DILI negative (test set)
Clc1ccc(COC(Cn2ccnc2)c2ccc(Cl)cc2Cl)cc1.O=[N+]([O-])O (stereo not given) [ECONAZOLE NITRATE] | – | DILI negative (test set)
CC[N+](C)(C)c1cccc(O)c1.[Cl-] [EDROPHONIUM CHLORIDE] | – | DILI negative (training set)
CCN(CC)C(=O)/C(C#N)=C/c1cc(O)c(O)c([N+](=O)[O-])c1 [ENTACAPONE] | – | DILI negative (test set)
COc1cccc2c1C(=O)c1c(O)c3c(c(O)c1C2=O)C[C@@](O)(C(=O)CO)C[C@@H]3O[C@H]1C[C@H](N)[C@@H](O)[C@H](C)O1 [EPIRUBICIN] | – | DILI negative (test set)
CCCCc1ncc(/C=C(\Cc2cccs2)C(=O)O)n1Cc1ccc(C(=O)O)cc1 [EPROSARTAN] | – | DILI negative (test set)
C=C1CC[C@H](O)C/C1=C/C=C1\CCC[C@]2(C)[C@@H]([C@H](C)/C=C/[C@H](C)C(C)C)CC[C@@H]12 [ERGOCALCIFEROL] | DILI negative (training set) | –
C[C@@H](CO)NC(=O)[C@@H]1C=C2c3cccc4[nH]cc(c34)C[C@H]2N(C)C1.O=C(O)/C=C\C(=O)O [ERGONOVINE MALEATE] | – | DILI negative (training set)
CN1C[C@H](C(=O)N[C@]2(C)O[C@@]3(O)[C@@H]4CCCN4C(=O)[C@H](Cc4ccccc4)N3C2=O)C=C2c3cccc4[nH]cc(c34)C[C@H]21.CN1C[C@H](C(=O)N[C@]2(C)O[C@@]3(O)[C@@H]4CCCN4C(=O)[C@H](Cc4ccccc4)N3C2=O)C=C2c3cccc4[nH]cc(c34)C[C@H]21.O=C(O)C(O)C(O)C(=O)O [ERGOTAMINE TARTRATE] | – | DILI negative (test set)
CCC(=O)O[C@H]1[C@H](O[C@@H]2[C@@H](C)[C@H](O[C@H]3C[C@@](C)(OC)[C@@H](O)[C@H](C)O3)[C@@H](C)C(=O)O[C@H](CC)[C@@](C)(O)[C@H](O)[C@@H](C)C(=O)[C@H](C)C[C@@]2(C)O)O[C@H](C)C[C@@H]1N(C)C.CCCCCCCCCCCCOS(=O)(=O)O [ERYTHROMYCIN ESTOLATE] | – | DILI positive (training set)
CC[C@H]1OC(=O)[C@H](C)[C@@H](O[C@H]2C[C@@](C)(OC)[C@@H](O)[C@H](C)O2)[C@H](C)[C@@H](O[C@@H]2O[C@H](C)C[C@H](N(C)C)[C@H]2O)[C@](C)(O)C[C@@H](C)C(=O)[C@H](C)[C@@H](O)[C@]1(C)O [ERYTHROMYCIN] | – | DILI negative (training set)
C[C@]12CC[C@@H]3c4ccc(O)cc4CC[C@H]3[C@@H]1CC[C@@H]2O[C@@H]1O[C@H](C(=O)O)[C@@H](O)[C@H](O)[C@H]1O [ESTRADIOL 17B GLUCURONIDE] | – | DILI positive (training set)
C[C@]12CC[C@@H]3c4ccc(O)cc4CC[C@H]3[C@@H]1CC[C@@H]2O [ESTRADIOL] | – | DILI negative (training set)

Compound | Hepatotoxicity (Liver) | Hepatotoxicity
C[C@]12CC[C@@H]3c4ccc(O)cc4CC[C@H]3[C@@H]1CCC2=O [ESTRONE] | – | DILI positive (training set)
CS(=O)(=O)OCCOS(C)(=O)=O [ETHANE DIMETHANE SULFONATE] | – | DILI positive (test set)
C#C[C@]1(O)CC[C@H]2[C@@H]3CCc4cc(O)ccc4[C@H]3CC[C@@]21C [ETHINYL ESTRADIOL] | – | DILI positive (test set)
CCSCC[C@H](N)C(=O)O [ETHIONINE] | – | DILI positive (training set)
CCC1(C)CC(=O)NC1=O (stereo not given) [ETHOSUXIMIDE] | – | DILI positive (test set)
OCCO [ETHYLENE GLYCOL] | DILI positive (test set) | –
C#C[C@]1(OC(C)=O)CC[C@H]2[C@@H]3CCC4=C[C@@H](OC(C)=O)CC[C@@H]4[C@H]3CC[C@@]21C [ETHYNODIOL DIACETATE] | – | DILI positive (training set)
COc1cc([C@@H]2c3cc4c(cc3[C@@H](O[C@@H]3O[C@@H]5CO[C@@H](C)O[C@H]5[C@H](O)[C@H]3O)[C@H]3COC(=O)[C@H]23)OCO4)cc(OC)c1O [ETOPOSIDE] | DILI positive (training set) | –
NC(N)=Nc1nc(CSCCC(N)=NS(N)(=O)=O)cs1 [FAMOTIDINE] | DILI negative (training set) | –
NC(=O)OCC(COC(N)=O)c1ccccc1 [FELBAMATE] | – | DILI positive (training set)
CC(C)OC(=O)C(C)(C)Oc1ccc(C(=O)c2ccc(Cl)cc2)cc1 [FENOFIBRATE] | – | DILI positive (training set)
CC(C(=O)[O-])c1cccc(Oc2ccccc2)c1.[Na+] (stereo not given) [FENOPROFEN SODIUM] | – | DILI positive (training set)
CC(C)(C(=O)O)c1ccc(C(O)CCCN2CCC(C(O)(c3ccccc3)c3ccccc3)CC2)cc1 (stereo not given) [FEXOFENADINE] | DILI negative (test set) | –
O=c1[nH]c(=O)n([C@@H]2O[C@H](CO)[C@@H](O)[C@@H]2F)cc1I [FIALURIDINE] | – | DILI positive (test set)
O=C(COc1ccc(Cl)cc1)N1CCN(Cc2ccc3c(c2)OCO3)CC1 [FIPEXIDE] | – | DILI positive (test set)
CC(=O)O.O=C(NCC1CCCCN1)c1cc(OCC(F)(F)F)ccc1OCC(F)(F)F (stereo not given) [FLECAINIDE ACETATE] | – | DILI positive (training set)
O=c1[nH]c(=O)n([C@H]2C[C@H](O)[C@@H](CO)O2)cc1F [FLOXURIDINE] | – | DILI positive (training set)
OC(Cn1cncn1)(Cn1cncn1)c1ccc(F)cc1F [FLUCONAZOLE] | DILI positive (training set) | –
Nc1nc(=O)[nH]cc1F [FLUCYTOSINE] | – | DILI positive (training set)
CC(=O)OCC(=O)[C@@]1(O)CC[C@H]2[C@@H]3CCC4=CC(=O)CC[C@]4(C)[C@@]3(F)[C@@H](O)C[C@@]21C [FLUDROCORTISONE ACETATE] | – | DILI negative (training set)
O=C(O)c1ccccc1Nc1cccc(C(F)(F)F)c1 [FLUFENAMIC ACID] | – | DILI negative (test set)
CCOC(=O)c1ncn2c1CN(C)C(=O)c1cc(F)ccc1-2 [FLUMAZENIL] | – | DILI negative (training set)

Compound | Hepatotoxicity (Liver) | Hepatotoxicity
C[C@H](C(=O)O)c1ccc2oc(-c3ccc(F)cc3)nc2c1 [FLUNOXAPROFEN] | – | DILI negative (test set)
O=c1[nH]cc(F)c(=O)[nH]1 [FLUOROURACIL] | – | DILI positive (test set)
CC(C(=O)O)c1ccc(-c2ccccc2)c(F)c1 (stereo not given) [FLURBIPROFEN] | – | DILI positive (training set)
CC(C)C(=O)Nc1ccc([N+](=O)[O-])c(C(F)(F)F)c1 [FLUTAMIDE] | – | DILI positive (training set)
CC(C)n1c(/C=C/C(O)CC(O)CC(=O)O)c(-c2ccc(F)cc2)c2ccccc21 (stereo not given) [FLUVASTATIN] | DILI negative (training set) | –
COCCCC/C(=N\OCCN)c1ccc(C(F)(F)F)cc1 [FLUVOXAMINE] | – | DILI positive (training set)
Nc1nc2ncc(CNc3ccc(C(=O)N[C@@H](CCC(=O)O)C(=O)O)cc3)nc2c(=O)[nH]1 [FOLIC ACID] | – | DILI negative (training set)
O=C(O)P(=O)(O)O [FOSCARNET] | – | DILI negative (test set)
O=C1OCCN1/N=C/c1ccc([N+](=O)[O-])o1 [FURAZOLIDONE] | – | DILI positive (training set)
NCC1(CC(=O)O)CCCCC1 [GABAPENTIN] | – | DILI negative (training set)
CC[N+](CC)(CC)CCOc1cccc(OCC[N+](CC)(CC)CC)c1OCC[N+](CC)(CC)CC.[I-].[I-].[I-] [GALLAMINE TRIETHIODIDE] | – | DILI negative (training set)
COc1c(N2CCNC(C)C2)c(F)cc2c(=O)c(C(=O)O)cn(C3CC3)c12 (stereo not given) [GATIFLOXACIN] | – | DILI negative (training set)
COc1cc2ncnc(Nc3ccc(F)c(Cl)c3)c2cc1OCCCN1CCOCC1 [GEFITINIB] | – | DILI positive (test set)
Cc1ccc(C)c(OCCCC(C)(C)C(=O)O)c1 [GEMFIBROZIL] | – | DILI positive (training set)
O=C(OCC(O)CO)c1ccccc1Nc1ccnc2cc(Cl)ccc12 (stereo not given) [GLAFENINE] | DILI positive (training set) | –
Cc1ccc(S(=O)(=O)NC(=O)NN2CC3CCCC3C2)cc1 (stereo not given) [GLICLAZIDE] | – | DILI negative (training set)
CCC1=C(C)CN(C(=O)NCCc2ccc(S(=O)(=O)NC(=O)N[C@H]3CC[C@H](C)CC3)cc2)C1=O [GLIMEPIRIDE] | – | DILI negative (training set)
N[C@H]1C(O)O[C@H](CO)[C@@H](O)[C@@H]1O (stereo not given in full) [GLUCOSAMINE] | – | DILI positive (training set)
CCC1(c2ccccc2)CCC(=O)NC1=O (stereo not given) [GLUTETHIMIDE] | – | DILI positive (test set)
Cc1c(F)c(N2CCNC(C)C2)cc2c1c(=O)c(C(=O)O)cn2C1CC1 (stereo not given) [GREPAFLOXACIN] | DILI positive (test set) | –
COC1=CC(=O)C[C@@H](C)[C@]12Oc1c(Cl)c(OC)cc(OC)c1C2=O [GRISEOFULVIN] | – | DILI positive (training set)
